Laboratory results published in patent US20130131161A1, “METHODS AND COMPOSITIONS FOR CARDIOVASCULAR DISEASES AND CONDITIONS” (priority 2009, published 2013).

Tested on: Human umbilical vein endothelial cells (HUVECs)
Experiment: eNOS activity analysis: NO, ONOO− and NO/ONOO− release from HUVECs of 50 genotyped donors in response to LA-419 (Example 2)
Format: cell-based
Details: for Fold difference NO (mean ± sd) / Fold difference NO/ONOO− (mean ± sd) / Fold difference ONOO− (mean ± sd): (LA-419 1 μM)/(control)
Procedure: Concurrent measurements of NO and ONOO^− were carried out with tandem electrochemical nanosensors combined into one working unit with a total diameter of 200-500 nm (FIG. 1). Their design was based on previously developed and well-characterized chemically modified carbon-fiber technology (Malinski and Taha, 1992; Lvovich and Scheeline, 1997). Each of the nanosensors was made by depositing a sensing material on the tip of a carbon fiber (length 4-5 μm, diameter 0.2-0.5 μm). The fibers were sealed with nonconductive epoxy and electrically connected to copper wires with conductive silver epoxy. A conductive film of polymeric nickel (II) tetrakis(3-methoxy-4-hydroxyphenyl)porphyrin for the NO-sensor and polymeric film of Mn (III) [2.2]paracyclophanylporphyrin was used for the ONOO^−-sensor.
A module of NO/ONOO^− nanosensors (diameter 1-2 μm) with a platinum wire (0.1 mm) counter electrode and saturated calomel reference electrode (SCE) were applied. Differential pulse voltammetry (DPV) and amperometry were performed with a computer-based Gamry VFP600 multichannel potentiostat. DPV was used to measure the basal NO and ONOO^− concentrations, and amperometry was used to measure changes in NO and ONOO^− concentrations from its basal level with time. The DPV current at the peak potential characteristic for NO oxidation (0.65 V) and ONOO^− reduction (−0.45 V) was directly proportional to the local concentrations of these compounds in the immediate vicinity of the sensor. Linear calibration curves (current vs. concentration) were constructed for each sensor from 10 nM to 3 μM before and after measurements with aliquots of NO and ONOO^− standard solutions, respectively. The detection limit of the sensors was 1.0 nM.
The quantification of each analyte (concentration in nM) was performed using a maximum current from amperograms and standard calibration curves. A reproducibility of measurements with nanosensors is relatively high (between 5-12%). […] The sensors were slowly raised 5±2 μm from the surface of a single endothelial cell. The eNOS agonist, calcium ionophore A23187 (CaI) as well as the different drugs were then added to the surrounding media at the cell surface with a nanoinjector that was also positioned by a computer controlled-micromanipulator.
This example describes the genotype-specific response of the three major eNOS variants to 1 μM and 5 μM concentrations of LA-419. The three major genetic polymorphisms studied were the Glu298Asp variant (E298D or 894G→T) in exon 7 of […], the −786T→C variant in the promoter region, and the intron 4 polymorphism (VNTR). All of these variants have possible effects on the cardiovascular system and endothelial dysfunction. For this study, human umbilical vein endothelial cells (HUVECs) from 50 donors between 18 and 32 years of age were used.
For the analysis several analysis techniques were employed. First, the effect of genotype on NO and ONOO^− release was explored within the different concentrations of LA-419 (control, 1 μM, 5 μM), calculated as the average peak release (nmols/L) of NO, ONOO^−, and NO/ONOO^−. The effect of genotype on the net increase in NO, ONOO^−, and NO/ONOO^− for LA-419 (1 μM and 5 μM) as compared to control was also measured. In addition, an analysis was done on the effect of genotype on the % change in NO, ONOO^−, and NO/ONOO^− production for LA-419 (1 μM and 5 μM), calculated as:
% Change=[(avg. LA-419−avg. control)/(avg. control)]*100
Finally, an evaluation was undertaken concerning the effect of genotype on the production of NO, ONOO^−, and NO/ONOO^− as the fold difference of control for LA-419 (1 μM and 5 μM), calculated as:
Fold Difference=(avg. LA-419)/(avg. control)
Within each calculation technique the results were compared for statistical significance using a non-parametric ANOVA Kruskal-Wallace test or a non-parametric Mann-Whitney U test. Statistical significance was set at a p-value <0.05 in a two-tailed distribution. […]

[1] = 1 μM LA-419, Intron 4 variant b/a, a/a, c/c (n=14)
[2] = 1 μM LA-419, Intron 4 variant b/b (n=31)
[3] = 5 μM LA-419, Intron 4 variant b/a, a/a, c/c (n=14)
[4] = 5 μM LA-419, Intron 4 variant b/b (n=31)
[5] = Combination of all G894T + T-786C genotypes but G/G + T/T, n=31
[6] = Combination of all G894T + T-786C genotypes but T/T + C/C, n=46

CC(=O)SC1COC2C(O[N+](=O)[O-])COC12 (stereo not drawn) [LA-419, S-(6-Nitro-oxi-hexahydro-furo[3,2-b]furan-3-1-il)thioacetate]
NO % Change (mean ± sd) [1]: 11.76 (29.57) % | NO/ONOO− % Change (mean ± sd) [1]: 28.01 (62.22) % | ONOO− % Change (mean ± sd) [1]: −2.68 (29.78) % | NO % Change (mean ± sd) [2]: 13.46 (23.13) % | NO/ONOO− % Change (mean ± sd) [2]: 43.27 (71.09) % | ONOO− % Change (mean ± sd) [2]: −10.24 (27.17) % | NO % Change (mean ± sd) [3]: 16.16 (6.09) % | NO/ONOO− % Change (mean ± sd) [3]: 44.37 (12.85) % | ONOO− % Change (mean ± sd) [3]: −19.27 (5.27) % | NO % Change (mean ± sd) [4]: 13.52 (6.80) % | NO/ONOO− % Change (mean ± sd) [4]: 42.24 (17.73) % | ONOO− % Change (mean ± sd) [4]: −19.19 (7.76) % | Fold difference NO (mean ± sd) [5]: 1.14 (0.26) | Fold difference NO/ONOO− (mean ± sd) [5]: 1.41 (0.71) | Fold difference ONOO− (mean ± sd) [5]: 0.92 (0.30) | Fold difference NO (mean ± sd) [6]: 1.13 (0.25) | Fold difference NO/ONOO− (mean ± sd) [6]: 1.37 (0.68) | Fold difference ONOO− (mean ± sd) [6]: 0.93 (0.28) | Fold difference NO (mean ± sd) (G894T + T-786C G/G + T/C, n=8): 1.03 (0.17) | Fold difference NO/ONOO− (mean ± sd) (G894T + T-786C G/G + T/C, n=8): 1.07 (0.37) | Fold difference ONOO− (mean ± sd) (G894T + T-786C G/G + T/C, n=8): 1.07 (0.36) | Fold difference NO (mean ± sd) (G894T + T-786C G/G + T/T, n=18): 1.10 (0.20) | Fold difference NO/ONOO− (mean ± sd) (G894T + T-786C G/G + T/T, n=18): 1.28 (0.57) | Fold difference ONOO− (mean ± sd) (G894T + T-786C G/G + T/T, n=18): 0.94 (0.23) | Fold difference NO (mean ± sd) (G894T + T-786C G/T + C/C, n=1): 0.86 (0) | Fold difference NO/ONOO− (mean ± sd) (G894T + T-786C G/T + C/C, n=1): 0.49 (0) | Fold difference ONOO− (mean ± sd) (G894T + T-786C G/T + C/C, n=1): 1.77 (0) | Fold difference NO (mean ± sd) (G894T + T-786C G/T + T/C, n=13): 1.28 (0.33) | Fold difference NO/ONOO− (mean ± sd) (G894T + T-786C G/T + T/C, n=13): 1.70 (0.81) | Fold difference ONOO− (mean ± sd) (G894T + T-786C G/T + T/C, n=13): 0.81 (0.15) | Fold difference NO (mean ± sd) (G894T + T-786C G/T + T/T, n=4): 1.08 (0.03) | Fold difference NO/ONOO− (mean ± sd) (G894T + T-786C G/T + T/T, n=4): 1.12 (0.18) | Fold difference ONOO− (mean ± sd) (G894T + T-786C G/T + T/T, n=4): 0.98 (0.18) | Fold difference NO (mean ± sd) (G894T + T-786C T/T + C/C, n=1): 1.02 (0) | Fold difference NO/ONOO− (mean ± sd) (G894T + T-786C T/T + C/C, n=1): 1.23 (0) | Fold difference ONOO− (mean ± sd) (G894T + T-786C T/T + C/C, n=1): 0.83 (0) | Fold difference NO (mean ± sd) (G894T + T-786C T/T + C/C, n=3): 1.07 (0.06) | Fold difference NO/ONOO− (mean ± sd) (G894T + T-786C T/T + C/C, n=3): 1.20 (0.04) | Fold difference ONOO− (mean ± sd) (G894T + T-786C T/T + C/C, n=3): 0.89 (0.06) | Fold difference NO (mean ± sd) (G894T + T-786C T/T + T/C, n=2): 1.11 (0.36) | Fold difference NO/ONOO− (mean ± sd) (G894T + T-786C T/T + T/C, n=2): 2.25 (1.17) | Fold difference ONOO− (mean ± sd) (G894T + T-786C T/T + T/C, n=2): 0.52 (0.11) | Fold difference NO (mean ± sd) (G894T G/G & G/T, n=44): 1.13 (0.25) | Fold difference NO/ONOO− (mean ± sd) (G894T G/G & G/T, n=44): 1.34 (0.64) | Fold difference ONOO− (mean ± sd) (G894T G/G & G/T, n=44): 0.95 (0.27) | Fold difference NO (mean ± sd) (G894T G/G, n=26): 1.08 (0.19) | Fold difference NO/ONOO− (mean ± sd) (G894T G/G, n=26): 1.22 (0.52) | Fold difference ONOO− (mean ± sd) (G894T G/G, n=26): 0.98 (0.27) | Fold difference NO (mean ± sd) (G894T G/T & T/T, n=23): 1.18 (0.28) | Fold difference NO/ONOO− (mean ± sd) (G894T G/T & T/T, n=23): 1.53 (0.77) | Fold difference ONOO− (mean ± sd) (G894T G/T & T/T, n=23): 0.87 (0.26) | Fold difference NO (mean ± sd) (G894T G/T, n=18): 1.21 (0.30) | Fold difference NO/ONOO− (mean ± sd) (G894T G/T, n=18): 1.50 (0.77) | Fold difference ONOO− (mean ± sd) (G894T G/T, n=18): 0.90 (0.27) | Fold difference NO/ONOO− (mean ± sd) (G894T T/T, n=5): 1.62 (0.82) | Fold difference ONOO− (mean ± sd) (G894T T/T, n=5): 0.75 (0.21) | Fold difference NO (mean ± sd) (Intron 4 a/a, n=1): 1.09 (0) | Fold difference NO/ONOO− (mean ± sd) (Intron 4 a/a, n=1): 1.23 (0) | Fold difference ONOO− (mean ± sd) (Intron 4 a/a, n=1): 0.89 (0) | Fold difference NO (mean ± sd) (Intron 4 a/a, n=3): 0.95 (0.25) | Fold difference NO/ONOO− (mean ± sd) (Intron 4 a/a, n=3): 0.96 (0.45) | Fold difference ONOO− (mean ± sd) (Intron 4 a/a, n=3): 1.10 (0.34) | Fold difference NO (mean ± sd) (Intron 4 b/a, a/a, c/c, n=14): 1.13 (0.23) | Fold difference NO/ONOO− (mean ± sd) (Intron 4 b/a, a/a, c/c, n=14): 1.28 (0.62) | Fold difference ONOO− (mean ± sd) (Intron 4 b/a, a/a, c/c, n=14): 0.97 (0.30) | Fold difference NO (mean ± sd) (Intron 4 b/a, n=10): 1.21 (0.28) | Fold difference NO/ONOO− (mean ± sd) (Intron 4 b/a, n=10): 1.43 (0.65) | Fold difference ONOO− (mean ± sd) (Intron 4 b/a, n=10): 0.93 (0.31) | Fold difference NO (mean ± sd) (Intron 4 b/b, b/a, c/c, n=42): 0.95 (0.25) | Fold difference NO/ONOO− (mean ± sd) (Intron 4 b/b, b/a, c/c, n=42): 1.42 (0.69) | Fold difference ONOO− (mean ± sd) (Intron 4 b/b, b/a, c/c, n=42): 0.91 (0.27) | Fold difference NO (mean ± sd) (Intron 4 b/b, n=31): 1.13 (0.23) | Fold difference NO/ONOO− (mean ± sd) (Intron 4 b/b, n=31): 1.43 (0.71) | Fold difference ONOO− (mean ± sd) (Intron 4 b/b, n=31): 0.90 (0.27) | Fold difference NO (mean ± sd) (Intron 4 c/c, n=1): 0.73 (0) | Fold difference NO/ONOO− (mean ± sd) (Intron 4 c/c, n=1): 0.74 (0) | Fold difference ONOO− (mean ± sd) (Intron 4 c/c, n=1): 0.99 (0) | Fold difference NO (mean ± sd) (T-786C C/C, n=1): 1.02 (0) | Fold difference NO/ONOO− (mean ± sd) (T-786C C/C, n=1): 1.23 (0) | Fold difference ONOO− (mean ± sd) (T-786C C/C, n=1): 0.83 (0) | Fold difference NO (mean ± sd) (T-786C C/C, n=4): 1.02 (0.12) | Fold difference NO/ONOO− (mean ± sd) (T-786C C/C, n=4): 1.03 (0.36)
